{
  "source": "patent EP4729529A1",
  "about": "“PREPARATION OF PEPTIDE INHIBITOR OF INTERLEUKIN-23 RECEPTOR AND USE THEREOF” (Xizang Haisco Pharmaceutical Co., Ltd., priority 2023, dated 2024)",
  "biological_target": "T1, IL-23R (Homo sapiens, UniProt Q5VWK5)",
  "T1 construct": "host or cells: HEK-blue IL23 reporter gene cell line",
  "T1 sequence (Q5VWK5 24-629)": "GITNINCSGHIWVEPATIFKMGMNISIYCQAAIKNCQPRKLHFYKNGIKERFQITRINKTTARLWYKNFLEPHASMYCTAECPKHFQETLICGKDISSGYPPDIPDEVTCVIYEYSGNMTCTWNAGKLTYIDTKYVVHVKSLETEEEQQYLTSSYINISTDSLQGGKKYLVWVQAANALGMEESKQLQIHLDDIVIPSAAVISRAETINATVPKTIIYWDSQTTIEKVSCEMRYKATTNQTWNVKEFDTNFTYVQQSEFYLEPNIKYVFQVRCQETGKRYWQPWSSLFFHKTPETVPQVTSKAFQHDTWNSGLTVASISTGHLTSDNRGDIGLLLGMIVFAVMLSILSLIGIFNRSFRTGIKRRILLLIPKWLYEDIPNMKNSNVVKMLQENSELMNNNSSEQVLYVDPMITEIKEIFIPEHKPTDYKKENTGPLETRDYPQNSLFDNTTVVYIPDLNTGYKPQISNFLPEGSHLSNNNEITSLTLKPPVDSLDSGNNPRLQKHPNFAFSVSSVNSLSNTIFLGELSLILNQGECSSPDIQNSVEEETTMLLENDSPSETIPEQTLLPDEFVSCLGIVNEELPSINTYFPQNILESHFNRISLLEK",
  "test": "IL-23R reporter gene assay (HEK-blue IL23 reporter gene cell line, rhIL23 stimulation)",
  "type": "cell-based",
  "details": "Inhibition of IL-23R, rhIL23 1 ng/mL, 24 hours",
  "method": "2. IL-23R reporter gene assay\nThe purpose of this assay was to assess the ability of compounds to inhibit the binding of IL23p19 to IL23R in a reporter gene system. The HEK-blue IL23 reporter gene cell line (Invivogen, hkb-il23) was cultured in DMEM + 10% FBS + 100 ug/mL Normocin medium. When the cell density reached 80%-90%, 5000 cells/well were plated into a 384-well plate, and the plate was incubated overnight at 37°C with 5% CO2. Then, the compound stock solution was diluted in DMSO, and 40 nL of the dilution was transferred into the 384-well culture plate by Echo. The plate was incubated at 37°C with 5% CO2 for 0.5 hours. 40 nL/well of rhIL23 (R&D, 1290-IL) was added to the 384-well cell culture plate at a final concentration of 1 ng/mL, and the plate was incubated at 37°C with 5% CO2 for 24 hours. 18 µL of Quanti-Blue™ solution was added to a new 384-well plate. 2 µL/well of cell culture supernatant was transferred into the 384-well plate prepared in Step 6, and the plate was incubated at 37°C with 5% CO2 for 1 hour. Absorbance values at […] were read on BMG. The binding ability of the compounds was assessed using the following formula, and IC50 values were obtained by fitting with Graphpad.\nCalculation formula of inhibition rate: [formula] • where Data negative: mean of DMSO control group; and • Data positive: mean of non-IL23-stimulated group\nThe calculation formula of IC50 was as follows: Y = Bottom + (Top−Bottom)/(1+10^(∧)((LogIC50−X)*HillSlope)) [formula] • where X: concentration of compound; and • Y: inhibition rate of compound Table 2. Inhibition of IL-23R by test compounds",
  "note": "Positions of bridges follow the written chain, without caps; N, C: chain ends. Non-standard residues stand in square brackets, D forms with d. Residues, ends and D or L forms follow the SMILES beside them. Phe(4-OC2H4NH2,2,3-(CH2)3) = NCCOc1ccc(C[C@H](N)C(=O)O)c2c1CCC2; Trp(7-Me) = Cc1cccc2c(C[C@H](N)C(=O)O)c[nH]c12; 2Nal = N[C@@H](Cc1ccc2ccccc2c1)C(=O)O; 3Pal = N[C@@H](Cc1cccnc1)C(=O)O; Pen = CC(C)(S)[C@H](N)C(=O)O; Thp = NC1(C(=O)O)CCOCC1; Sar = CNCC(=O)O",
  "data": [
    {"smiles": "CC(=O)NCCCC[C@@H]1NC(=O)[C@H](Cc2c[nH]c3c(C)cccc23)NC(=O)[C@H]([C@@H](C)O)NC(=O)[C@H](Cc2c[nH]cn2)NC(=O)[C@@H](NC(C)=O)C(C)(C)SSC(C)(C)[C@@H](C(=O)N[C@@H](Cc2ccc(OCCN)c3c2CCC3)C(=O)N[C@@H](Cc2ccc3ccccc3c2)C(=O)NC2(C(=O)N[C@@H](CCC(=O)O)C(=O)N[C@@H](CC(N)=O)C(=O)N[C@@H](Cc3cccnc3)C(=O)N(C)CC(N)=O)CCOCC2)NC1=O", "note": "[Compound 7] (Ac-[Pen]HT[Trp(7-Me)]K(Ac)[Pen][Phe(4-OC2H4NH2,2,3-(CH2)3)][2Nal][Thp]EN[3Pal][Sar]-NH2; disulfide 1-6)", "values": [
      {"measurement": "IC50", "value": 6.38, "unit": "nM"}
    ]}
  ]
}
